Data from patent US20140024548A1, “DRUG SELECTION FOR MALIGNANT CANCER THERAPY USING ANTIBODY-BASED ARRAYS” (NESTEC S.A., priority 2010, published 2014).
One block for each compound: values may come before it.

Key:
[1] = tested on: human xenograft models; conditions: dosed orally; cited from earlier work
[2] = biological target: T1, cMET (Homo sapiens, UniProt P08581); test: CEER detection of activated cMET in HCC827 cells treated with HGF; type: cell-based; conditions: HGF stimulation, FIG. 10B
T1 construct: host or cells: HCC827
Description: (§1) In one particular embodiment, cells from a NSCLC cell line (e.g., HCC827 cells or other gefitinib sensitive lung adenocarcinoma cells with EGFR-activating mutations; American Type Culture Collection, Manassas, Va.) were treated with different concentrations of ligand or signaling molecule (e.g., the ligand for the cMET receptor, HGF). The levels of expression and activation of proteins associated with cancer were measured in the treated cells with high sensitivity using CEER arrays. By varying the amount of ligand exposed to the cancer cells, the expression profiles of the analyzed proteins were correlated to the amount of ligand used to stimulate the cells. Dose response curves were used to calculate EC50 values which can be used to interpret the inhibition and activation states of the analyzed proteins.
(§2) FIG. 10 illustrates the difference in protein expression in HCC827 cells following HGF stimulation. […] FIG. 10E illustrates that HGF and cMET binding interferes with HER3 activation, and HER1 and HER2 to a lesser extent (see also, FIGS. 10C and 10D).

[3] = tested on: HER1; test: CEER detection of activated HER1 in HCC827 cells treated with HGF; type: cell-based; conditions: HGF stimulation, judged by increased EC50
Description: as §1, §2

[4] = tested on: HER2; test: CEER detection of activated HER2 in HCC827 cells treated with HGF; type: cell-based; conditions: HGF stimulation, judged by increased EC50
Description: as §1, §2

[5] = tested on: HER3; test: CEER detection of activated HER3 in HCC827 cells treated with HGF; type: cell-based; conditions: HGF stimulation, judged by increased EC50
Description: as §1, §2

[6] = early Phase I evaluation; cited from earlier work
[7] = in vivo; cited from earlier work
[8] = tested on: CYP450; conditions: cited from earlier work

T1 sequence (P08581 25-1390): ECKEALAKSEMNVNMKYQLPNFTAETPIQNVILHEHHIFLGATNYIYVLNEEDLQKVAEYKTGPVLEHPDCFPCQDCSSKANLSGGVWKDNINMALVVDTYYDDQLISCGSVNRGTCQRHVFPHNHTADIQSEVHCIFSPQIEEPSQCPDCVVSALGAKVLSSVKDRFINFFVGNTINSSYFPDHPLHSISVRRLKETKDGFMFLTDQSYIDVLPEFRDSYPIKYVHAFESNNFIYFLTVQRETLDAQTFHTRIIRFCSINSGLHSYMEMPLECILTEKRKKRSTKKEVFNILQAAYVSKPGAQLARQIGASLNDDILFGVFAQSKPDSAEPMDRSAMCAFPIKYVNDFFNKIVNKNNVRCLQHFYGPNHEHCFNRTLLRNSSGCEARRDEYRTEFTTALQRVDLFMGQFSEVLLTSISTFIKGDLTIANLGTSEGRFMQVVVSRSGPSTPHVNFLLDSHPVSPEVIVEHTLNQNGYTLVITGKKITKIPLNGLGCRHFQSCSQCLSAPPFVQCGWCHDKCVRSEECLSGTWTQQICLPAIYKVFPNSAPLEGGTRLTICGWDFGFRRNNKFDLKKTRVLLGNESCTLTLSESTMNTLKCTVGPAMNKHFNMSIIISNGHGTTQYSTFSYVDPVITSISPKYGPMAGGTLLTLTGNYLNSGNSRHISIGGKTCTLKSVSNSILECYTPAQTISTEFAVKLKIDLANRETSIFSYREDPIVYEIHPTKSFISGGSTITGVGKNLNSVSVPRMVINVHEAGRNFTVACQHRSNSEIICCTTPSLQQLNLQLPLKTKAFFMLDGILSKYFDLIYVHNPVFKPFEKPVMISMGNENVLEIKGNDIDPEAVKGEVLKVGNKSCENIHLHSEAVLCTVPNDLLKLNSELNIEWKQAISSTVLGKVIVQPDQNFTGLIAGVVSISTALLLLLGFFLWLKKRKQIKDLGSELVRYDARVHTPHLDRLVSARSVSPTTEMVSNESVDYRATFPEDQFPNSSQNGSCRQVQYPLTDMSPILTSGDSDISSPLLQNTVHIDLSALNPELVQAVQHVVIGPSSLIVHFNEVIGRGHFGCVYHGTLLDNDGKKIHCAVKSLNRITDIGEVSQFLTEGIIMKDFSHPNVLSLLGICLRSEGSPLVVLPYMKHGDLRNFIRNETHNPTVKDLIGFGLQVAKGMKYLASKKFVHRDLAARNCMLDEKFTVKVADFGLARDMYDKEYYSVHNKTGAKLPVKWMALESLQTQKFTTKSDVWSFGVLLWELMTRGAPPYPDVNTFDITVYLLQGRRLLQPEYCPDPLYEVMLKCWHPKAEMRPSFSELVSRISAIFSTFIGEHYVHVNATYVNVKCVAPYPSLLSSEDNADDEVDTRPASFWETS

Compound: Cn1cc(-c2ccc3nnc(Sc4ccc5ncccc5c4)n3n2)cn1 [SGX523]
antitumor activity [1]: potent antitumor activity
toxicity [1]: no overt toxicity

cMET activation [2]: activated cMET effectively
Compound: HGF: hepatocyte growth factor, the ligand for the cMET receptor
HER1 activation [3]: decreased
HER2 activation [4]: decreased
HER3 activation [5]: decreased

Compound: CN(C[C@@H]1COCCO1)S(=O)(=O)Nc1ccc2ccc3ncc(-c4cnn(C)c4)cc3c(=O)c2c1 [MK-2461]
tolerability [6]: well tolerated

Compound: COc1cc2c(Oc3ccc(NC(=O)C4(C(=O)Nc5ccc(F)cc5)CC4)cc3F)ccnc2cc1OCCCN1CCOCC1 [GSK 1363089/XL880]
oral bioavailability [7]: good oral bioavailability
CYP450 substrate / inhibitor / inducer status [8]: substrate, but not an inhibitor or inducer
